Experimental findings from PMC6874667, “A conserved odorant binding protein is required for essential amino acid detection in Drosophila” (Communications Biology, 2019) are described below.

Structures can show the parent of a compound that is named as a salt.

The target of one assay is T1, OBP19b (Drosophila melanogaster, UniProt Q9VR95).
T1 construct: mature OBP19b without its native signal peptide
T1 sequence (Q9VR95 34-163): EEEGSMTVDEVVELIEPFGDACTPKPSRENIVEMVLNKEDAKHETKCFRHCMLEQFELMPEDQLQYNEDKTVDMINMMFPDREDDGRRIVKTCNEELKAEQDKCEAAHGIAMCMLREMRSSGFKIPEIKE
The assay is described as follows: biochemical. On the set-up: competitive NPN probe displacement from recombinant OBP19b, fluorescence 340/415 nm, single concentration, per cent fluorescence displacement. The conditions noted are these: NPN displacement; buffer blank 13.4 % not subtracted. The procedure: To measure the affinity of OBP19b to ligands, a competitive screening assay was performed at 23 °C using a 96-well microplate format and a Victor3 V microplate reader (PerkinElmer Life Sciences) with 25 and 5 nm slits for excitation and emission, respectively. The excitation wavelength was 340 nm, and the fluorescence emission intensity was recorded at 415 nm. First, a wide screening array involving various ligand compounds was performed. Each well contained 200 µL of 2 µM OBP19b with 4 µM NPN dissolved in 50 mM sodium phosphate buffer at pH 7.5. Fatty acids and bitter compounds were tested in the µM range, whereas sugars, amino acids, vitamins, acids, amines, and isothiocyanate compounds were tested in the mM range. All tested compounds were dissolved in 10% methanol except amino acids, which were dissolved in 50 mM sodium phosphate buffer at pH 7.5. Based on the results of the first screen, the 20 L-amino acids, certain D-amino acids and three nonproteinogenic amino acids were tested by adding 100 µL of a 30 mM ligand stock solution to the microplate wells to obtain a final concentration of 15 mM, and then the solution was mixed. Significant differences using one-way analysis of variance (ANOVA) followed by Dunnett’s test were observed compared to the buffer (***p < 0.001; **p < 0.01). The competitive-binding curves were identified by titration of OBP19b/NPN complex with aliquots of 50 mM ligand to final concentration ranging from 0 to 20 mM. The dissociation constants (Kdapp) of each compound were calculated according to the corresponding IC50 values (the concentration of ligands required to halve the initial fluorescence value of NPN) using the following equation: Kdapp = [IC50]/(1 + […]/KNPN), where [NPN] is the free concentration of NPN. The reported Kdapp values are the average of three measurements performed on three independently experiments.  Fig. 2 Binding properties of OBP19b with a competitive fluorescent assay. The fluorescent displacement of the fluorescent probe NPN by various taste compounds was evaluated by adding aliquots of 50 mM ligand (dissolved in 50 mM sodium phosphate buffer at pH 7.5) to final concentration ranging from 0 to 20 mM. a Fatty acid esters and bitter compounds were tested at a final concentration of 40 µM. b Amino acids, vitamins, acids, amines, trigeminal (isothiocyanate), and sugars compounds were tested at a 15 mM final concentration. c Fluorescent displacement of 20 L-amino acids, including L-phenylalanine (L-Phe: magenta color), L-glutamine (L-Gln: green) and L-alanine (L-Ala: cyan); three nonproteinogenic amino acids L-ornithine (L-Orn), L-canavanine (L-Can), L-citrulline (L-Cit); and three D-amino acids (D-phenylalanine: orange, D-glutamine: blue, and D-alanine: gray). Dots indicate essential amino acids. Statistical differences were determined using one-way ANOVA followed by Dunnett’s test (***p < 0.001; **p < 0.01). d Competitive-binding curves of L-Phe and L-Gln (showing the lowest Kdapp), L-Ala (negative control), and their three corresponding D-isomers. Data values represent the mean ± SEM.
Consider `C[C@@H](N)C(=O)O` [D-alanine], for which the inhibition (usually the change of the read-out against control, counted positive when it falls) at 15000 µM is 23.5%.

For the compound `NC(=O)CC[C@@H](N)C(=O)O` [D-glutamine], the inhibition at 15000 µM stood at 22.6%. In the case of `N[C@H](Cc1ccccc1)C(=O)O` [D-phenylalanine], the inhibition at 15000 µM came out at 28.3%. On the same count and under the same terms, next, `NCC(=O)O` [Glycine]: 31.6%. For `NC(=O)CC[C@H](N)C(=O)O` [L-Gln, L-glutamine], the inhibition at 15000 µM amounted to 40.7%.

Consider `N[C@@H](Cc1ccccc1)C(=O)O` [L-Phe, L-phenylalanine], for which the inhibition at 15000 µM was 44%. With `C[C@H](N)C(=O)O` [L-alanine], the inhibition at 15000 µM was found to be 27.2%. `N=C(N)NCCC[C@H](N)C(=O)O` [L-arginine]: the inhibition at 15000 µM was 40.5%.

With `NC(=O)C[C@H](N)C(=O)O` [L-asparagine], the inhibition at 15000 µM amounted to 41.2%.

On to `N[C@@H](CC(=O)O)C(=O)O` [L-aspartic acid], for which the inhibition at 15000 µM was found to be 43.4%. For the compound `NC(N)=NOCC[C@H](N)C(=O)O` [L-canavanine sulfate salt], the inhibition at 15000 µM turned out to be 22.2%. Take `N[C@@H](CS)C(=O)O` [L-cysteine]: the inhibition at 15000 µM is -14.4%. Still for that read-out and setting: next, `N[C@@H](CCC(=O)O)C(=O)O` [L-glutamic acid]: -0.061%; `N[C@@H](Cc1c[nH]cn1)C(=O)O` [L-histidine]: 7.44%; `CC[C@H](C)[C@H](N)C(=O)O` [L-isoleucine]: 22.8%. With `CC(C)C[C@H](N)C(=O)O` [L-leucine], the inhibition at 15000 µM turned out to be 22.8%. For the compound `NCCCC[C@H](N)C(=O)O` [L-lysine], the inhibition at 15000 µM came out at 20.2%. On to `CSCC[C@H](N)C(=O)O` [L-methionine], for which the inhibition at 15000 µM came out at 37.3%. For the compound `NCCC[C@H](N)C(=O)O` [L-ornithine dihydro chloride], the inhibition at 15000 µM is 25.1%. Turning to `O=C(O)[C@@H]1CCCN1` [L-proline], the inhibition at 15000 µM came to 20.1%.

Regarding `N[C@@H](CO)C(=O)O` [L-serine], the inhibition at 15000 µM worked out at 46.2%.

For the compound `C[C@@H](O)[C@H](N)C(=O)O` [L-threonine], the inhibition at 15000 µM came out at 17.8%. In the case of `N[C@@H](Cc1c[nH]c2ccccc12)C(=O)O` [L-tryptophan], the inhibition at 15000 µM came out at 36.2%. On the same count and under the same terms, next, `N[C@@H](Cc1ccc(O)cc1)C(=O)O` [L-tyrosine]: -122%. Still for that read-out and setting: next, `CC(C)[C@H](N)C(=O)O` [L-valine]: 16.2%.

Another assay has as its target T1, OBP19b. The assay is described as follows: direct fluorescence titration with fluorescent probe. It is filed as binding.
Conditions: not given
In the case of `c1ccc(Nc2cccc3ccccc23)cc1` [NPN, N-phenyl-1-naphthylamine], the Kd – broadly, the constant that tells how readily two partners part at equilibrium – is 4.1 ± 0.9 µM.

For the next assay, the target named is T1, OBP19b. The assay is described as follows: competitive NPN fluorescence displacement, single dose […]. Format: binding.
Conditions: not given
`COc1ccc2cc3[n+](cc2c1OC)CCc1cc2c(cc1-3)OCO2` [berberine]: the “competitive NPN fluorescence displacement, single dose 40 μM” value is “The highest level of fluorescence displacement was induced by papaverine, berberine, 2-phenylethyl isothiocyanate”. Regarding `COc1ccc(Cc2nccc3cc(OC)c(OC)cc23)cc1OC` [papaverine], the “competitive NPN fluorescence displacement, single dose 40 μM” value was “The highest level of fluorescence displacement was induced by papaverine, berberine, 2-phenylethyl isothiocyanate”.
